Like-named read-outs stand apart in the source and are kept apart here.
How the values were obtained:
[1] = test system: Akt phosphorylation induced by IGF-1R; experiment: Western blot analysis of Akt phosphorylation induced by IGF-1 in HT-29 cells; assay type: cell-based, Human; settings: for Levels of phosphorylated AKT in treated cells (pAKT/actin): HT-29 cells, IGF-1; for p-AKT relative to levels with 0.1 nM compound: Table B2 lower part; for Normalized phosphorylated AKT (relative to actin) levels relative to 0.1 nM compound treatment: Table B2 upper part; for pAKT relative to 0.1 nM compound: derivatives of Cpd. No. 8b
How it was run: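 Phospho-Akt assessed by western blot in serum-depleted (24 h) human colon carcinoma HT-29 cells. Compounds applied for 2 h at 0.1–100 (0.1, 1, 10, 100); vehicle DMSO and 10 ng/mL IGF-1 served as controls. Protein in cleared lysates measured by BCA assay.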

[2] = biological target: T1, IGF-1R (Homo sapiens, UniProt P08069); experiment: In vitro IGF-1R enzymatic assay (ADP-Glo kinase assay); assay type: biochemical; settings: activated IGF-1R, 30 nM; for % Inh @ 30 nM (N1) / % Inh @ 30 nM (N2): 0.03 µM
T1 construct: purchased Millipore 14-802
T1 sequence (P08069 31-1367): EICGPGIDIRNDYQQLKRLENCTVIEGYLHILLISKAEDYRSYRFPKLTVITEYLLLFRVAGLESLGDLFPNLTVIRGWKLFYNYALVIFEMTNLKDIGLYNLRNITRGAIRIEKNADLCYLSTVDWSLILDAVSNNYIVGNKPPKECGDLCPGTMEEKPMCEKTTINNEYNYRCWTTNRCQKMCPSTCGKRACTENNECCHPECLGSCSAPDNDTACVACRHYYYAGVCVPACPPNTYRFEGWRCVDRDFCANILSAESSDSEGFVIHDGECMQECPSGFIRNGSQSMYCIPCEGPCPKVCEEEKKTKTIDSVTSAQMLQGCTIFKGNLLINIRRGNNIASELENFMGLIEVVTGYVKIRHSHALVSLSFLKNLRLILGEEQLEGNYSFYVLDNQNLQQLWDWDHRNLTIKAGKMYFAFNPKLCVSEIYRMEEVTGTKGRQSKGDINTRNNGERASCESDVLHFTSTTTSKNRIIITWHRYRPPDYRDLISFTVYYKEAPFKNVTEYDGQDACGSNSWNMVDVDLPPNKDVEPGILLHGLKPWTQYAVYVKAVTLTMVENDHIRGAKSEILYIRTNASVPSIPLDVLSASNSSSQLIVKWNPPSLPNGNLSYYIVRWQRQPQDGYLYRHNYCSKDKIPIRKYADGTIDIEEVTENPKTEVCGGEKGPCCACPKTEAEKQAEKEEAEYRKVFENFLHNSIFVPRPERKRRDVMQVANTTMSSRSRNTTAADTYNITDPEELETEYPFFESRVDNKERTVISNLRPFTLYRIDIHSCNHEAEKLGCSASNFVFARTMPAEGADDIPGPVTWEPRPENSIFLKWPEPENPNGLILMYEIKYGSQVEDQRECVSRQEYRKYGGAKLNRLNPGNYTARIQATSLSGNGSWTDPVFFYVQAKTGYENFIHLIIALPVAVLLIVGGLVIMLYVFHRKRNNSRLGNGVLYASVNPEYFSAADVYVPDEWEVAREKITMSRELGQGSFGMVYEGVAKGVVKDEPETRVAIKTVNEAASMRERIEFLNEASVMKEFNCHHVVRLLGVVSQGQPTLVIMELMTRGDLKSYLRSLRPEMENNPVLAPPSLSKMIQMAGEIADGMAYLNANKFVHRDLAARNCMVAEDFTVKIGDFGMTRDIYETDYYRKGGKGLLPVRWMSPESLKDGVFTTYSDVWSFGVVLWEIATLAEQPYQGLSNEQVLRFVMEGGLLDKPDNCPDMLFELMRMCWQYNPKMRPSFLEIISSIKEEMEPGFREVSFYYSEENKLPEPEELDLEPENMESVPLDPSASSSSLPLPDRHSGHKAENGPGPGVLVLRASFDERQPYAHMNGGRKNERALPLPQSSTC
Procedure: (§1) IC50 values of the compounds of the invention against IGF-1R and IR were measured in vitro using an ADP-Glo kinase assay Kit (Promega). […] Kinase reactions in both assays were conducted at 30° C. for 20 min with increasing concentrations of compounds of the invention.
Additional compounds of the invention were screened against activated IGF-1R.

[3] = biological target: T2, IR (Homo sapiens, UniProt P06213); experiment: In vitro IR enzymatic assay (ADP-Glo kinase assay); assay type: biochemical; settings: activated IR, 30 nM; for % Inh @ 30 nM (N1) / % Inh @ 30 nM (N2): 0.03 µM
T2 construct: purchased Millipore 14-803
T2 sequence (P06213 28-1382): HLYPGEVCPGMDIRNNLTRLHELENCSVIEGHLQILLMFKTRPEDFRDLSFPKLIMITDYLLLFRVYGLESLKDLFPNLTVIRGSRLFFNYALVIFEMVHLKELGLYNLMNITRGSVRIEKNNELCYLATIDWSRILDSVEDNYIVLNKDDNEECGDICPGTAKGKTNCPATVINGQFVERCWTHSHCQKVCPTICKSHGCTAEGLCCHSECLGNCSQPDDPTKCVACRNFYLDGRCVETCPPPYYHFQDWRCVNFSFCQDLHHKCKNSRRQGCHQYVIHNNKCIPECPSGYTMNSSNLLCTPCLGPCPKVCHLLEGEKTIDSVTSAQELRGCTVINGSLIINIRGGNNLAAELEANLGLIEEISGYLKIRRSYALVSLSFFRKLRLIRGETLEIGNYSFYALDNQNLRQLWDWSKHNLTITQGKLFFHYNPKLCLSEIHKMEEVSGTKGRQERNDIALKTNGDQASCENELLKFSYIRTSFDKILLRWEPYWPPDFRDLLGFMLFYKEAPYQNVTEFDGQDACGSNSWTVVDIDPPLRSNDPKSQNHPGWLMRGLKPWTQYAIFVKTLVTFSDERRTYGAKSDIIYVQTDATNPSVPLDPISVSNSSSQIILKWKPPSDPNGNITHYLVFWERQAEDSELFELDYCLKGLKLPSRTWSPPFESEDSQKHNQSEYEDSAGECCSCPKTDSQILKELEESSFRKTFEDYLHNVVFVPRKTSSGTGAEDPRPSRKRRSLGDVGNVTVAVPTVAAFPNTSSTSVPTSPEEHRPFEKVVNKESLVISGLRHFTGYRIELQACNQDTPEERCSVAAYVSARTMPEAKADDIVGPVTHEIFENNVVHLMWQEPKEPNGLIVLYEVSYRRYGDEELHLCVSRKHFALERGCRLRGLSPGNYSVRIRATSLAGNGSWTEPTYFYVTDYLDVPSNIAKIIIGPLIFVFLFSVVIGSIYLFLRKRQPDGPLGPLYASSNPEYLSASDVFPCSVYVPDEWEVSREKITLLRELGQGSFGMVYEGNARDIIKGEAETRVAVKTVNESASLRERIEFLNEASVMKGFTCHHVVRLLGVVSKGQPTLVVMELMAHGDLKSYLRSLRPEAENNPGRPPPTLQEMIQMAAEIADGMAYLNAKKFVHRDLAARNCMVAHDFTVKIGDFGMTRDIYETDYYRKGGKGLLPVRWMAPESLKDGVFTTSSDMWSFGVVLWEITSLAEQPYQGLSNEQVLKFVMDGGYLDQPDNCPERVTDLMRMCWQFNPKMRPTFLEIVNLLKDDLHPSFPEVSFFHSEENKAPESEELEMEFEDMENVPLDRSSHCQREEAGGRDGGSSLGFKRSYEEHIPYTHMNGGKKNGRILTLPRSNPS
Procedure: as §1
Additional compounds of the invention were screened against activated IR.

[4] = N1, read-out: % Inh @ 30 nM (N1)
[5] = N2, read-out: % Inh @ 30 nM (N2)
[6] = average, read-out: % Inh @ 30 nM Avg

| inhibition at 0.03 µM [2, 4] [%] | inhibition at 0.03 µM [2, 5] [%] | inhibition at 0.03 µM [2, 6] [%] | inhibition at 0.03 µM [3, 4] [%] | % Inh @ 30 nM (N2) ([2]; N2) [%] | % Inh @ 30 nM (N1) ([3]; N1) [%] | % Inh @ 30 nM (N2) ([3]; N2) [%] | % Inh @ 30 nM Avg ([3]; average) [%] | SMILES | Levels of phosphorylated AKT in treated cells (pAKT/actin) ([1]; 0.1 nM compound) | p-AKT relative to levels with 0.1 nM compound ([1]; 0.1 nM) | Normalized phosphorylated AKT (relative to actin) levels relative to 0.1 nM compound treatment ([1]; 0.1 nM) | Levels of phosphorylated AKT in treated cells (pAKT/actin) ([1]; 1 nM compound) | p-AKT relative to levels with 0.1 nM compound ([1]; 1 nM) | Normalized phosphorylated AKT (relative to actin) levels relative to 0.1 nM compound treatment ([1]; 1 nM) | Levels of phosphorylated AKT in treated cells (pAKT/actin) ([1]; 10 nM compound) | p-AKT relative to levels with 0.1 nM compound ([1]; 10 nM) | Normalized phosphorylated AKT (relative to actin) levels relative to 0.1 nM compound treatment ([1]; 10 nM) | Levels of phosphorylated AKT in treated cells (pAKT/actin) ([1]; 100 nM compound) | p-AKT relative to levels with 0.1 nM compound ([1]; 100 nM) | Normalized phosphorylated AKT (relative to actin) levels relative to 0.1 nM compound treatment ([1]; 100 nM) | other results |
| --- | --- | --- | --- | --- | --- | --- | --- | --- | --- | --- | --- | --- | --- | --- | --- | --- | --- | --- | --- | --- | --- |
| 22 | 33 | 28 | -13 | – | – | – | – | O=C(Nc1cnccn1)C1CCCN1c1nc2c(c(Nc3cc(C4CC4)[nH]n3)n1)CCC2 (single isomer, unassigned) [Compound 6a, 1-(4-(3-cyclopropyl-1H-pyrazol-5-ylamino)-6,7-dihydro-5H-cyclopenta[d]pyrimidin-2-yl)-N-(pyrazin-2-yl)pyrrolidine-2-carboxamide] | 1.85 | 1.0 | 1.0 | 1.74 | 0.9 | 0.9 | 1.40 | 0.8 | 0.8 | 1.17 | 0.6 | 0.6 | inhibition at 0.03 µM [3, 5]: 9%; inhibition at 0.03 µM [3, 6]: -2% |
| – | – | – | – | 11 | −2 | 9 | 3 | O=C(Nc1ccc(F)nc1)C1C(O)CCN1c1nc2c(c(Nc3cc(C4CC4)[nH]n3)n1)CCC2 (single isomer, unassigned) [Compound 11b, 1-(4-(5-cyclopropyl-1H-pyrazol-3-ylamino)-6,7-dihydro-5H-cyclopenta[d]pyrimidin-2-yl)-N-(6-fluoropyridin-3-yl)-3-hydroxypyrrolidine-2-carboxamide] | 1.55 | 1.0 | 1.0 | 1.76 | 1.1 | 1.1 | 1.43 | 0.9 | 0.9 | 0.33 | 0.2 | 0.2 | % Inh @ 30 nM (N1) ([2]; N1): 22%; % Inh @ 30 nM Avg ([2]; average): 17% |
| 10 | 34 | 22 | 4 | – | – | – | – | CC(C)c1cc(Nc2nc(N3CCCC3C(=O)Nc3ccc(F)nc3)nc3c2CCCC3)n[nH]1 (single isomer, unassigned) [Compound 13a, N-(6-fluoropyridin-3-yl)-1-(4-(5-isopropyl-1H-pyrazol-3-ylamino)-5,6,7,8-tetrahydroquinazolin-2-yl)pyrrolidine-2-carboxamide] | 0.51 | 1.0 | 1.0 | 0.54 | 1.1 | 1.1 | 0.45 | 0.9 | 0.9 | 0.80 | 1.6 | 1.6 | inhibition at 0.03 µM [3, 5]: -1%; inhibition at 0.03 µM [3, 6]: 2% |
| 82 | 80 | 81 | 84 | – | – | – | – | CC(C)c1cc(Nc2nc(N3CCCC3C(=O)Nc3ccc(F)nc3)nc3c2CCCC3)n[nH]1 (single isomer, unassigned) [Compound 13b, N-(6-fluoropyridin-3-yl)-1-(4-(5-isopropyl-1H-pyrazol-3-ylamino)-5,6,7,8-tetrahydroquinazolin-2-yl)pyrrolidine-2-carboxamide] | 0.22 | 1.0 | 1.0 | 0.09 | 0.4 | 0.4 | 0.00 | 0.0 | 0.0 | 0.00 | 0.0 | 0.0 | pAKT relative to 0.1 nM compound ([1]; 0.1 nM): 1.00; pAKT relative to 0.1 nM compound ([1]; 1 nM): 0.49; pAKT relative to 0.1 nM compound ([1]; 10 nM): 0.04; pAKT relative to 0.1 nM compound ([1]; 100 nM): 0.02; inhibition at 0.03 µM [3, 5]: 80%; inhibition at 0.03 µM [3, 6]: 82% |
| – | – | – | – | 28 | 28 | 31 | 30 | O=C(Nc1ccc(F)nc1)C1CCCN1c1nc2c(c(Nc3cc(C4CCCC4)[nH]n3)n1)CCCC2 (single isomer, unassigned) [Compound 15b, 1-(4-(5-cyclopentyl-1H-pyrazol-3-ylamino)-5,6,7,8-tetrahydroquinazolin-2-yl)-N-(6-fluoropyridin-3-yl)pyrrolidine-2-carboxamide] | 0.52 | 1.0 | 1.0 | 0.58 | 1.1 | 1.1 | 0.43 | 0.8 | 0.8 | 0.13 | 0.3 | 0.3 | % Inh @ 30 nM (N1) ([2]; N1): 32%; % Inh @ 30 nM Avg ([2]; average): 30% |
| – | – | – | – | 15 | 1 | −7 | −3 | CC(C)c1cc(Nc2nc(N3CCCCC3C(=O)Nc3ccc(F)nc3)nc3c2CCC3)n[nH]1 (single isomer, unassigned) [Compound 16a, N-(6-fluoropyridin-3-yl)-1-(4-(5-isopropyl-1H-pyrazol-3-ylamino)-6,7-dihydro-5H-cyclopenta[d]pyrimidin-2-yl)piperidine-2-carboxamide] | 0.82 | 1.0 | 1.0 | 0.62 | 0.8 | 0.8 | 0.61 | 0.7 | 0.7 | 0.30 | 0.4 | 0.4 | – |
| – | – | – | – | 40 | 26 | 23 | 25 | CC(C)c1cc(Nc2nc(N3CCCCC3C(=O)Nc3ccc(F)nc3)nc3c2CCC3)n[nH]1 (single isomer, unassigned) [Compound 16b, N-(6-fluoropyridin-3-yl)-1-(4-(5-isopropyl-1H-pyrazol-3-ylamino)-6,7-dihydro-5H-cyclopenta[d]pyrimidin-2-yl)piperidine-2-carboxamide] | 0.53 | 1.0 | 1.0 | 0.51 | 1.0 | 1.0 | 0.15 | 0.3 | 0.3 | 0.01 | 0.0 | 0.0 | % Inh @ 30 nM (N1) ([2]; N1): 40%; % Inh @ 30 nM Avg ([2]; average): 40% |

From patent publication US9499519B2, “Fused pyrimidine compounds and use thereof” (Medivation Technologies, Inc., priority 2012, dated 2016)
